Legend:
[1] = tested on: rheumatoid arthritis; details: cited from earlier work
[2] = tested on: CD4+CD45RO− T cells from RA patients and controls; assay: T-cell apoptosis (PI) with homeostatic cytokines; format: cell-based, human; details: 72 h culture; IL-2 20 U/ml, IL-7 20 ng/ml, IL-15 10 ng/ml; similar in control and RA T cells
Method: FIG. 1. […] CD4+CD45RO− T cells were isolated from the peripheral blood of RA patients and controls. Cells were maintained in culture without mitogenic stimulation for 72 h. (A) T cells undergoing apoptosis were identified by Annexin V and 7-AAD staining in patient-derived and control samples. Data are given as mean±SEM from 6 patients and 6 controls. (B) Representative data from one patient and one control collected after 72 h are shown. (C) Cells were maintained in culture with IL-2 (20 U/ml), IL-7 (20 ng/ml), IL-15 (10 ng/ml), or a mixture of the three (Mix) for 72 h. T cells undergoing apoptosis were identified by PI staining. Data are given as mean±SEM from 7 patients and 5 controls. (D) DNA breaks were quantified by comet assay after 72 h. Data are given as mean±SEM of 7 patients and 6 controls with a minimum of 90 individual cells analyzed in each sample.
To quantify T-cell apoptosis, CD4^+CD45RO^− cells were washed and suspended in 500 μl FACS buffer supplemented with EasyComp Blank Particles (Spherotech, Lake Forest, Ill.). Uptake of PI (Sigma-Aldrich) was determined by flow cytometry. Apoptotic cells were detected with PE-Annexin V (BD Biosciences, San Jose, Calif.) and 7-AAD (BD Biosciences).

[3] = tested on: B cells in blood and tissue; details: cynomolgus monkeys; cited from earlier work
[4] = tested on: Bmf; assay: Bmf protein level by flow cytometry in RA T cells; format: cell-based, human; details: treated vs untreated
Method: (§1) FIG. 8. The DNA-PKcs-JNK pathway upregulates the apoptogenic molecules Bim and Bmf in RA CD4+ T cells. CD4+CD45RO− T cells were isolated from the peripheral blood of 6 controls and 6 RA patients. Cells were maintained in culture without mitogenic stimulation for 72 h. (A) Puma, Noxa, Bim and Bmf transcript levels in freshly isolated cells were quantified by qPCR. Data are presented as mean±SEM. (B) Flow cytometry analysis of Bim levels in control and RA naïve T cells after 72 h of culture. Expression of Bim protein in n=5 RA and n=5 controls samples is given as MFI of Alexa Fluor 488 Bim. (C) Flow cytometry analysis of Bmf levels in control and RA naïve T cells. Expression of Bmf protein in n=6 RA and n=4 controls samples is given as MFI of PE Bmf. (D) Bcl-2 protein levels were analyzed by flow cytometry. Expression of Bcl-2 protein in n=6 RA and n=6 control samples is given as MFI of FITC Bcl-2. (E) Bim protein level in the absence and presence of the DNA-PKcs inhibitor were analyzed by flow cytometry in samples from 4 RA patients. […]
(§2) For intracellular staining, cells were fixed directly with 1.5% formaldehyde for 10 min at room temperature and resuspended in 90% methanol. […] Proteins or 8-oxoguanine expression were detected by an LSRII flow cytometer (BD Biosciences). Data were analyzed by FlowJo software (Tree Star Inc., Ashland, Oreg.). […]

[5] = tested on: CD4+CD45RO− T cells from RA patients; assay: T-cell apoptosis by flow cytometry staining for PI, RA T cells; format: cell-based, human
Method: FIG. 5. Inhibition of DNA-PKcs activity protects RA T cells from apoptosis. CD4+CD45RO− T cells were isolated from 6 control donors and 7 RA patients. Cells were maintained in culture without stimulation for 48 h and then were treated with the DNA-PKcs inhibitor IC86621 (50 nM, 100 nM) or vehicle for 24 h. Cells were harvested and (A) T-cell apoptosis was measured by flow cytometry staining for PI. Representative cytometric data from one patient and one control are shown. (B) Frequencies of PI-positive T-cells in the absence and presence of the DNA-PKcs inhibitor from 6 controls and 7 RA patients are presented as mean±SEM.
FIG. 6. Silencing of the DNA-PKcs gene reduces apoptosis in RA T cells. CD4+CD45RO− T cells were purified from 3 control donors and 3 RA patients and transfected with control or DNA-PKcs specific siRNA oligonucleotides by nucleofection. (A, B) Twenty-four hours after transfection, DNA-PKcs transcript levels were quantified by qPCR, and DNA-PKcs protein levels were detected by Western blotting. (C) T-cell apoptosis was analyzed by staining for PI. Representative data from one patient and one control are shown. (D) Cell apoptosis from 3 control and 3 RA samples are presented as mean±SEM.
FIG. 7. […] (A) CD4+CD45RO− T cells were isolated and cultured in the presence of the indicated enzyme inhibitors for 24 h. T-cell apoptosis was quantified through flow cytometry staining for PI. (B) Cells were maintained in culture without stimulation for 48 h and then were treated with the JNK inhibitor. PI-positive T cells were measured after 24 h of treatment with the JNK inhibitor II (5 μM or 10 μM) or vehicle. Frequencies of apoptotic T cells from 6 controls and 7 RA patients are presented as mean±SEM. (C) Representative flow cytometry results from one control and one patient. (D) Flow cytometry analysis of phosphorylated JNK levels in control and RA T cells after culturing without mitogenic stimulation for 72 h. Representative data from one patient and one control are presented. (E) Expression of pJNK protein in n=6 RA and n=6 control samples at 72 h is given as MFI of FITC-pJNK. (F) Flow cytometry analysis of phosphorylated JNK levels in freshly isolated control and RA naïve CD4 T cells. Expression of pJNK protein in n=7 RA and n=7 control samples at day 0 is given as MFI of FITC-pJNK. (G) Quantification of JNK and pJNK protein expression at 72 h by Western blotting. (H) Relative expression levels of pJNK were quantified by measuring band intensities adjusted by total JNK in 6 RA patients and 6 control donors. Data are presented as mean±SEM. (I) CD4+CD45RO− T cells were purified from RA donors and transfected with control or DNA-PKcs-specific siRNA oligonucleotides by nucleofection. Twenty-four hours after transfection, DNA-PKcs and pJNK protein levels were detected by Western blotting. A representative blot from three independent experiments is shown.
Peripheral blood mononuclear cells (PBMC) were separated from whole blood with Lymphocyte Separation Medium (Mediatech Inc., Herndon, Va.). CD45RO^− cells were negatively selected with microbeads (Miltenyi Biotec Inc., Auburn, Calif.), and the naïve CD4^+CD45RO^− population was subsequently selected with CD4 microbeads (autoMACS, Miltenyi Biotec Inc.).
CD4^+CD45RO^− T cells were maintained in a resting state in DMEM without mitogenic stimulation for three days. In selected experiments, T-cell homeostatic cytokines were supplemented. To test for the role of signaling networks in mediating apoptosis, the following inhibitors were added to the cultures at day 0: DNA-PKcs inhibitor IC86621 (Sigma-Aldrich, St. Louis, Mo.), JNK inhibitor II (Calbiochem, La Jolla, Calif.), p38 inhibitor (Alexis Biochemicals, Plymouth Meeting, Pa., SB203580), CaM inhibitor (Calbiochem), NE-KB inhibitor (Calbiochem), and AKT inhibitor (Calbiochem). […]

[6] = tested on: Bim; assay: Bim protein level by flow cytometry in RA T cells; format: cell-based, human; details: treated vs untreated
Method: as §1, §2

[7] = target: TNFα (Homo sapiens, UniProt P01375); details: cited from earlier work
Sequence of TNFα (P01375 77-233 limits assumed): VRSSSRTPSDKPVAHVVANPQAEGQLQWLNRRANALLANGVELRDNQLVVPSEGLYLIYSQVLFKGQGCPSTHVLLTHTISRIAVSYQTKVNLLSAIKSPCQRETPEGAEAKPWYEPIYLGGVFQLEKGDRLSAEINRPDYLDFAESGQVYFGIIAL

[8] = target: T1, IL-1R type I (Homo sapiens, UniProt P14778); details: cited from earlier work
T1 sequence (P14778 18-569): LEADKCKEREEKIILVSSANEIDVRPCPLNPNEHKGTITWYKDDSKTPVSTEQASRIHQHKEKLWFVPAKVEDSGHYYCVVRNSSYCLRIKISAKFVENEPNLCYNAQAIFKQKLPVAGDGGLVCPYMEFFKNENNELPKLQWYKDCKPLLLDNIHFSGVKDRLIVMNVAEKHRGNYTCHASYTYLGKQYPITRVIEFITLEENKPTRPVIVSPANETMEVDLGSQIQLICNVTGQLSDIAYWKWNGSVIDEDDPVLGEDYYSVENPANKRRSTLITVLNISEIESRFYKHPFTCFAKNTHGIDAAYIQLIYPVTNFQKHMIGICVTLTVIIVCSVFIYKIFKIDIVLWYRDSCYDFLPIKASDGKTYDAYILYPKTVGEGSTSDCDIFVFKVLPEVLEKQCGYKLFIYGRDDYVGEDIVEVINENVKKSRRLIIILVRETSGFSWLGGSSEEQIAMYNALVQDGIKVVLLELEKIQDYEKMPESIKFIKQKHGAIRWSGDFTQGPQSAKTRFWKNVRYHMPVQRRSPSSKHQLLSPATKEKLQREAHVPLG

CN(Cc1cnc2nc(N)nc(N)c2n1)c1ccc(C(=O)N[C@@H](CCC(=O)O)C(=O)O)cc1 [MTX, Methotrexate]
patients having some response [1]: 70%

IL-15: growth-promoting, T-cell homeostatic cytokine
apoptosis rates / T-cell attrition [2]: prevented only one-third of the T-cell attrition

LymphoStat-B: fully human IgG1λ monoclonal antibody that neutralizes human BlyS
B cells in blood and tissue [3]: selectively reduces B cells in blood and tissue
toxicity [3]: no overt toxicity

O=C1c2ccccc2-c2n[nH]c3cccc1c23 [JNK inhibitor II, anthra(1,9-cd)pyrazol-6(2H)-one]
intracellular Bmf levels [4]: reduced
T cell death in screen with panel of signal pathway inhibitors ([5]; RA T cells cultured with inhibitor for 24 h, PI staining): able to protect RA T cells from dying
death rate in dose-response experiments ([5]; RA T cells, 48 h culture then 5 μM or 10 μM for 24 h): normalize the death rate
effectiveness of 10 μM compared with 5 μM ([5]; RA T cells, PI-positive cells after 24 h of treatment): more effective
intracellular Bim levels [6]: reduced

Etanercept
affinity for TNFα of the dimeric receptor relative to the monomeric receptor [7]: 50-1000 fold

Anakinra: human recombinant IL-1 receptor antagonist
affinity of binding to IL-1R type I [8]: same affinity as IL-1

B1: IL-7: growth-promoting, T-cell homeostatic cytokine (protein, UniProt P13232 26-177, looked up)
Interleukin-7: DCDIEGKDGKQYESVLMVSIDQLLDSMKEIGSNCLNNEFNFFKRHICDANKEGMFLFRAARKLRQFLKMNSTGDFDLHLLKVSEGTTILLNCTGQVKGRKPAALGEAQPTKSLEENKSLKEQKKLNDLCFLKRLLQEIKTCWNKILMGTKEH
apoptosis rates / T-cell attrition [2]: prevented only one-third of the T-cell attrition
